{"source": "patent US20090170758A1", "about": "“COMPOSITIONS COMPRISING PULMONARY SURFACTANTS AND A POLYMYXIN HAVING IMPROVED SURFACE PROPERTIES” (Chiesi Farmaceutici S.p.A., priority 2002, published 2009)", "assay": "Spreading experiments on a modified Wilhelmy balance", "assay_type": "physicochemical", "conditions": "Curosurf diluted to 20 mg/ml, 10 microl", "protocol": "Experiments were performed at 37° C. using a modified Wilhelmy balance with a surface area of 20 cm^2. Standard amounts of Curosurf at various concentrations (10-80 mg/ml) were applied onto a hypophase of saline, approximately 40 mm from the dipping plate. In some experiments, CaCl2 (2 mM), dextran (30 mg/ml), or polymyxin B (2% on the weight of the surfactant, i.e. 0.4 mg/ml) was added to diluted surfactant material (20 mg/ml). The effect of albumin at low concentration (0.1 mg/ml) added to the hypophase was also investigated. Surface tension, measured 1 sec after administration of the sample was used as a parameter combining spreading and film formation by adsorption from the hypophase.", "key": {"[1]": {"conditions": "agent added to surfactant (CaCl2 2 mM, dextran 30 mg/ml, polymyxin B 2% = 0.4 mg/ml), no albumin"}, "[2]": {"conditions": "agent added to surfactant, albumin 0.1 mg/ml added to the hypophase"}}, "data": [{"compound": "[Ca+2].[Cl-].[Cl-]", "note": "[CaCl2]", "values": [{"measurement": "Surface tension at 1 sec (mN/m)", "setting": "[1]", "value": 52, "unit": "mN/m"}, {"measurement": "Surface tension at 1 sec (mN/m)", "setting": "[2]", "value": 70, "unit": "mN/m"}]}, {"compound": "polymyxin B", "values": [{"measurement": "Surface tension at 1 sec (mN/m)", "setting": "[1]", "value": 28, "unit": "mN/m"}, {"measurement": "Surface tension at 1 sec (mN/m)", "setting": "[2]", "value": 45, "unit": "mN/m"}]}]}
